Source: patent US8546386B2, “Corrosion and microbial control in hydrocarbonaceous compositions” (Dow Global Technologies LLC, priority 2008, dated 2013)

Tests used:
Type in all cases: cell-based
[1] = system: Pseudomonas aeruginosa ATCC#33988; assay: Microbial testing in diesel fuel, plate count
[2] = system: Hormoconis resinae ATCC#20495; assay: Microbial testing in diesel fuel, plate count
[3] = system: Yarrowia tropicalis ATCC#48138; assay: Microbial testing in diesel fuel, plate count
[4] = system: Pseudomonas aeruginosa ATCC#33988; assay: Microbial testing in biodiesel fuel, plate count; settings: no biocide
[5] = system: Hormoconis resinae ATCC#20495; assay: Microbial testing in biodiesel fuel, plate count; settings: no biocide
[6] = amino alcohol 1500 ppm + FS 135 ppm, Day 0
[7] = amino alcohol 1500 ppm + FS 135 ppm, Wk 1
[8] = amino alcohol 1500 ppm + FS 135 ppm, Wk 2
[9] = amino alcohol 1500 ppm + FS 135 ppm, Wk 3
[10] = amino alcohol 1500 ppm + FS 135 ppm, Wk 4
[11] = amino alcohol 1500 ppm + FS 1000 ppm, Day 0
[12] = amino alcohol 1500 ppm + FS 1000 ppm, Wk 1
[13] = amino alcohol 1500 ppm + FS 1000 ppm, Wk 2
[14] = amino alcohol 1500 ppm + FS 1000 ppm, Wk 3
[15] = amino alcohol 1500 ppm + FS 1000 ppm, Wk 4
[16] = amino alcohol 1500 ppm, no biocide, Day 0
[17] = amino alcohol 1500 ppm, no biocide, Wk 1
[18] = amino alcohol 1500 ppm, no biocide, Wk 2
[19] = amino alcohol 1500 ppm, no biocide, Wk 3
[20] = amino alcohol 1500 ppm, no biocide, Wk 4
[21] = amino alcohol 3000 ppm + FS 135 ppm, Day 0
[22] = amino alcohol 3000 ppm + FS 135 ppm, Wk 1
[23] = amino alcohol 3000 ppm + FS 135 ppm, Wk 2
[24] = amino alcohol 3000 ppm + FS 135 ppm, Wk 3
[25] = amino alcohol 3000 ppm + FS 135 ppm, Wk 4
[26] = amino alcohol 3000 ppm + FS 1000 ppm, Day 0
[27] = amino alcohol 3000 ppm + FS 1000 ppm, Wk 1
[28] = amino alcohol 3000 ppm + FS 1000 ppm, Wk 2
[29] = amino alcohol 3000 ppm + FS 1000 ppm, Wk 3
[30] = amino alcohol 3000 ppm + FS 1000 ppm, Wk 4
[31] = amino alcohol 3000 ppm, no biocide, Day 0
[32] = amino alcohol 3000 ppm, no biocide, Wk 1
[33] = amino alcohol 3000 ppm, no biocide, Wk 2
[34] = amino alcohol 3000 ppm, no biocide, Wk 3
[35] = amino alcohol 3000 ppm, no biocide, Wk 4

## CC(C)(N)CO [AMP, 2-amino-2-methyl-1-propanol]
[1]; [6]
  Ps. aeruginosa organism count: 3.7E6
[1]; [7]
  Ps. aeruginosa organism count: 4.3E5
[1]; [8]
  Ps. aeruginosa organism count: 9.0E4
[1]; [9]
  Ps. aeruginosa organism count: 1.4E4
[1]; [10]
  Ps. aeruginosa organism count: 8.2E3
[1]; [11]
  Ps. aeruginosa organism count: 3.7E6
[1]; [12]
  Ps. aeruginosa organism count: 1.4E2
[1]; [13]
  Ps. aeruginosa organism count: <10
[1]; [14]
  Ps. aeruginosa organism count: <10
[1]; [15]
  Ps. aeruginosa organism count: <10
[1]; [16]
  Ps. aeruginosa organism count: 3.7E6
[1]; [17]
  Ps. aeruginosa organism count: 2.1E6
[1]; [18]
  Ps. aeruginosa organism count: 5.0E6
[1]; [19]
  Ps. aeruginosa organism count: 1.0E6
[1]; [20]
  Ps. aeruginosa organism count: 6.8E6
[1]; [21]
  Ps. aeruginosa organism count: 3.7E6
[1]; [22]
  Ps. aeruginosa organism count: 7.0E5
[1]; [23]
  Ps. aeruginosa organism count: 6.8E4
[1]; [24]
  Ps. aeruginosa organism count: 1.6E4
[1]; [25]
  Ps. aeruginosa organism count: 1.1E4
[1]; [26]
  Ps. aeruginosa organism count: 3.7E6
[1]; [27]
  Ps. aeruginosa organism count: <10
[1]; [28]
  Ps. aeruginosa organism count: <10
[1]; [29]
  Ps. aeruginosa organism count: <10
[1]; [30]
  Ps. aeruginosa organism count: <10
[1]; [31]
  Ps. aeruginosa organism count: 3.7E6
[1]; [32]
  Ps. aeruginosa organism count: 8.6E5
[1]; [33]
  Ps. aeruginosa organism count: 4.0E6
[1]; [34]
  Ps. aeruginosa organism count: 7.8E6
[1]; [35]
  Ps. aeruginosa organism count: 7.2E6
[2]; [6]
  H. resinae organism count: 5.3E5
[2]; [7]
  H. resinae organism count: 6.7E4
[2]; [8]
  H. resinae organism count: 1.3E4
[2]; [9]
  H. resinae organism count: 5.8E3
[2]; [10]
  H. resinae organism count: 4.7E3
[2]; [11]
  H. resinae organism count: 5.3E5
[2]; [12]
  H. resinae organism count: 9.2E2
[2]; [13]
  H. resinae organism count: <10
[2]; [14]
  H. resinae organism count: <10
[2]; [15]
  H. resinae organism count: <10
[2]; [16]
  H. resinae organism count: 5.3E5
[2]; [17]
  H. resinae organism count: 2.0E5
[2]; [18]
  H. resinae organism count: 5.8E5
[2]; [19]
  H. resinae organism count: 8.1E5
[2]; [20]
  H. resinae organism count: 7.2E5
[2]; [21]
  H. resinae organism count: 5.3E5
[2]; [22]
  H. resinae organism count: 5.7E4
[2]; [23]
  H. resinae organism count: 8.6E3
[2]; [24]
  H. resinae organism count: 7.6E3
[2]; [25]
  H. resinae organism count: 5.8E3
[2]; [26]
  H. resinae organism count: 5.3E5
[2]; [27]
  H. resinae organism count: 7.0E3
[2]; [28]
  H. resinae organism count: <10
[2]; [29]
  H. resinae organism count: <10
[2]; [30]
  H. resinae organism count: <10
[2]; [31]
  H. resinae organism count: 5.3E5
[2]; [32]
  H. resinae organism count: 3.6E5
[2]; [33]
  H. resinae organism count: 7.3E5
[2]; [34]
  H. resinae organism count: 1.1E6
[2]; [35]
  H. resinae organism count: 2.3E6
[3]; [6]
  Y. tropicalis organism count: 2.8E5
[3]; [7]
  Y. tropicalis organism count: 8.2E4
[3]; [8]
  Y. tropicalis organism count: 5.6E4
[3]; [9]
  Y. tropicalis organism count: 9.0E3
[3]; [10]
  Y. tropicalis organism count: 5.9E3
[3]; [11]
  Y. tropicalis organism count: 2.8E5
[3]; [12]
  Y. tropicalis organism count: 5.2E2
[3]; [13]
  Y. tropicalis organism count: <10
[3]; [14]
  Y. tropicalis organism count: <10
[3]; [15]
  Y. tropicalis organism count: <10
[3]; [16]
  Y. tropicalis organism count: 2.8E5
[3]; [17]
  Y. tropicalis organism count: 3.4E5
[3]; [18]
  Y. tropicalis organism count: 6.2E5
[3]; [19]
  Y. tropicalis organism count: 8.0E6
[3]; [20]
  Y. tropicalis organism count: 4.3E6
[3]; [21]
  Y. tropicalis organism count: 2.8E5
[3]; [22]
  Y. tropicalis organism count: 5.8E4
[3]; [23]
  Y. tropicalis organism count: 9.4E3
[3]; [24]
  Y. tropicalis organism count: 4.8E3
[3]; [25]
  Y. tropicalis organism count: 5.0E3
[3]; [26]
  Y. tropicalis organism count: 2.8E5
[3]; [27]
  Y. tropicalis organism count: 9.4E2
[3]; [28]
  Y. tropicalis organism count: <10
[3]; [29]
  Y. tropicalis organism count: <10
[3]; [30]
  Y. tropicalis organism count: <10
[3]; [31]
  Y. tropicalis organism count: 2.8E5
[3]; [32]
  Y. tropicalis organism count: 1.6E5
[3]; [33]
  Y. tropicalis organism count: 5.7E5
[3]; [34]
  Y. tropicalis organism count: 6.8E5
[3]; [35]
  Y. tropicalis organism count: 2.0E6

## CCCCCCCC/C=C\CCCCCCCC(=O)O.OCCN(CCO)CCO [TEA/Oleic]
[4]; additive 500 ppm, Week 1
  Bacteria (Ps. aeruginosa) count: 7.30E+04 Bact/ml
[4]; additive 500 ppm, Week 2
  Bacteria (Ps. aeruginosa) count: 5.00E+05 Bact/ml
[4]; additive 500 ppm, Week 3
  Bacteria (Ps. aeruginosa) count: 1.20E+06 Bact/ml
[4]; additive 500 ppm, Week 4
  Bacteria (Ps. aeruginosa) count: 1.10E+06 Bact/ml
[4]; additive 1500 ppm, Week 1
  Bacteria (Ps. aeruginosa) count: 2.00E+03 Bact/ml
[4]; additive 1500 ppm, Week 2
  Bacteria (Ps. aeruginosa) count: 9.00E+04 Bact/ml
[4]; additive 1500 ppm, Week 3
  Bacteria (Ps. aeruginosa) count: 2.20E+05 Bact/ml
[4]; additive 1500 ppm, Week 4
  Bacteria (Ps. aeruginosa) count: 8.30E+04 Bact/ml
[5]; additive 500 ppm, Week 1
  Mold (H. resinae) count: 8.20E+04 Mold/ml
[5]; additive 500 ppm, Week 2
  Mold (H. resinae) count: 3.70E+05 Mold/ml
[5]; additive 500 ppm, Week 3
  Mold (H. resinae) count: 4.30E+05 Mold/ml
[5]; additive 500 ppm, Week 4
  Mold (H. resinae) count: 6.20E+05 Mold/ml
[5]; additive 1500 ppm, Week 1
  Mold (H. resinae) count: 3.70E+02 Mold/ml
[5]; additive 1500 ppm, Week 2
  Mold (H. resinae) count: 1.30E+04 Mold/ml
[5]; additive 1500 ppm, Week 3
  Mold (H. resinae) count: 2.00E+04 Mold/ml
[5]; additive 1500 ppm, Week 4
  Mold (H. resinae) count: 4.70E+03 Mold/ml
